Among the data in patent publication US11981661B2, “Heterocyclic compounds” (Hoffmann-La Roche Inc., priority 2020, dated 2024) are IC50 values, retold here.

This assay concerns the target T1, MAGL (Homo sapiens, UniProt Q99685).
T1 sequence (Q99685 1-303): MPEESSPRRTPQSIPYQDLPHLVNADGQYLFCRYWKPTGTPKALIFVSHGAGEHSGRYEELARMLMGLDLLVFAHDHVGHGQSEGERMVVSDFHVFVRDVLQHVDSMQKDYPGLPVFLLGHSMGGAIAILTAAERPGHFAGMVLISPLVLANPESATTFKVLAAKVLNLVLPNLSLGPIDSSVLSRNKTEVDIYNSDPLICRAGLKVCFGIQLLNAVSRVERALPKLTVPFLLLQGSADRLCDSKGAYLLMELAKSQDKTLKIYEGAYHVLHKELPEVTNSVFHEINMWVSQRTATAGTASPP
Put plainly: 2-AG assay (MAGL inhibitory activity, hydrolysis of 2-arachidonoylglycerol followed by mass spectrometry). The class given is biochemical. Conditions: 50 pM MAGL, 8 μM 2-arachidonoylglycerol, 15 min preincubation, 30 min incubation at RT, concentration range 12.5 μM to 0.8 pM. As to the method: Compounds were profiled for MAGL inhibitory activity by determining the enzymatic activity by following the hydrolysis of the natural substrate 2-arachidonoylglycerol resulting in arachidonic acid, which can be followed by mass spectrometry. This assay is hereinafter abbreviated “2-AG assay”.
The 2-AG assay was carried out in 384 well assay plates (PP, Greiner Cat #784201) in a total volume of 20 μL. Compound dilutions were made in 100% DMSO (VWR Chemicals 23500.297) in a polypropylene plate in 3-fold dilution steps to give a final concentration range in the assay from 12.5 μM to 0.8 pM. 0.25 μL compound dilutions (100% DMSO) were added to 9 μL MAGL in assay buffer (50 mM TRIS (GIBCO, 15567-027), 1 mM EDTA (Fluka, 03690-100 mL), 0.01% (v/v) Tween. After shaking, the plate was incubated for 15 min at RT. To start the reaction, 10 μL 2-arachidonoylglycerol in assay buffer was added. The final concentrations in the assay was 50 pM MAGL and 8 μM 2-arachidonoylglyerol. After shaking and 30 min incubation at RT, the reaction was quenched by the addition of 40 μL of ACN containing 4 μM of d8-arachidonic acid. The amount of arachidonic acid was traced by an online SPE system (Agilent Rapidfire) coupled to a triple quadrupole mass spectrometer (Agilent 6460). A C18 SPE cartridge (G9205A) was used in an ACN/water liquid setup. The mass spectrometer was operated in negative electrospray mode following the mass transitions 303.1→259.1 for arachidonic acid and 311.1→267.0 for d8-arachidonic acid. The activity of the compounds was calculated based on the ratio of intensities [arachidonic acid/d8-arachidonic acid].

Molecules are shown by their SMILES.

The term IC50 denotes the concentration needed to halve the response being measured. Lower therefore signals greater potency in that assay.

Take `O=C1CCC(CCC(=O)N2C[C@@H]3CN(Cc4ccc(C(F)(F)F)cc4F)C[C@H]3C2)N1` (single isomer, unassigned; (+)) [Example 12]: inhibition was half-maximal at 2310 nM (IC50).

For `O=C1COCC(CCC(=O)N2CC(OCc3ccc(C(F)(F)F)cc3F)C2)N1` (single isomer, unassigned; (+)) [Example 51, (+)-5-[3-[3-[[2-Fluoro-4-(trifluoromethyl)phenyl]methoxy]azetidin-1-yl]-3-oxo-propyl]morpholin-3-one], the IC50 was determined as 287 nM. Compared with the last compound, the IC50 is about 8-fold lower.

The compound `O=C1CCC(CCC(=O)N2CC(OCc3ccc(C(F)(F)F)cc3F)C2)N1` (single isomer, unassigned; (-)) [Example 1, (−)-5-[3-[3-[[2-Fluoro-4-(trifluoromethyl)phenyl]methoxy]azetidin-1-yl]-3-oxo-propyl]pyrrolidin-2-one] returned an IC50 of 3960 nM.

`CC(C)(C)c1ccc(C2CN(C(=O)CCC3CCC(=O)N3)C2)cc1` (single isomer, unassigned; (-)) [Example 3, (−)-5-[3-[3-(4-tert-Butylphenyl)azetidin-1-yl]-3-oxo-propyl]pyrrolidin-2-one] gave an IC50 of 273 nM.

The compound `O=C1CCC(CCC(=O)N2CC(c3ccc(C4(C(F)(F)F)CC4)cc3)C2)N1` (single isomer, unassigned; (-)) [Example 5, (−)-5-[3-Oxo-3-[3-[4-[1-(trifluoromethyl)cyclopropyl]phenyl]azetidin-1-yl]propyl]pyrrolidin-2-one] came in with an IC50 of 627 nM.

`O=C1CCC(CCC(=O)N2CC(c3ccc(-c4ccc(F)cc4F)cc3)C2)N1` (single isomer, unassigned; (-)) [Example 9, (−)-5-[3-[3-[4-(2,4-Difluorophenyl)phenyl]azetidin-1-yl]-3-oxo-propyl]pyrrolidin-2-one] yielded an IC50 of 550 nM. This IC50 and that of the compound before are within 1.5-fold of each other.

Consider `O=C1CCC(CCC(=O)N2C[C@@H]3CN(Cc4ccc(C(F)(F)F)cc4F)C[C@H]3C2)N1` (single isomer, unassigned; (-)) [Example 11], for which the IC50 was ≥ 12500 nM.

Turning to `O=C1COCC(CCC(=O)N2CC(OCc3ccc(C(F)(F)F)cc3F)C2)N1` (single isomer, unassigned; (-)) [Example 50, (−)-5-[3-[3-[[2-Fluoro-4-(trifluoromethyl)phenyl]methoxy]azetidin-1-yl]-3-oxo-propyl]morpholin-3-one], the half-inhibitory concentration (IC50) was ≥ 12500 nM.

The compound `CC1(CCC(=O)N2CC(OCc3ccc(C(F)(F)F)cc3F)C2)CCC(=O)N1` (stereo not drawn) [Example 14, (+)- or (−)-5-[3-[3-[[2-Fluoro-4-(trifluoromethyl)phenyl]methoxy]azetidin-1-yl]-3-oxo-propyl]-5-methyl-pyrrolidin-2-one] gave an IC50 of 2110 nM.

In turn, `O=C1N[C@@H](CCC(=O)N2CC(OCc3ccc(C(F)(F)F)cc3F)C2)CO1` [Example 19, (4S)-4-[3-[3-[[2-Fluoro-4-(trifluoromethyl)phenyl]methoxy]azetidin-1-yl]-3-oxo-propyl]oxazolidin-2-one] showed an IC50 of 1550 nM.

The compound `O=C1N[C@H](CCC(=O)N2CC(OCc3ccc(C(F)(F)F)cc3F)C2)CO1` [Example 20, (4R)-4-[3-[3-[[2-Fluoro-4-(trifluoromethyl)phenyl]methoxy]azetidin-1-yl]-3-oxo-propyl]oxazolidin-2-one] showed an IC50 of 7 nM.

`O=C1N[C@@H](CCC(=O)N2CC(c3ccc(C4(C(F)(F)F)CC4)cc3)C2)CO1` [Example 21, (4S)-4-[3-Oxo-3-[3-[4-[1-(trifluoromethyl)cyclo-propyl]phenyl]azetidin-1-yl]propyl]oxazolidin-2-one] showed an IC50 of 254 nM.

In turn, `O=C1N[C@H](CCC(=O)N2CC(c3ccc(C4(C(F)(F)F)CC4)cc3)C2)CO1` [Example 22, (4R)-4-[3-Oxo-3-[3-[4-[1-(trifluoromethyl)cyclo-propyl]phenyl]azetidin-1-yl]propyl]oxazolidin-2-one] yielded an IC50 of 1 nM.

`O=C1N[C@@H](CCC(=O)N2CC(c3ccc(-c4ccc(F)cc4F)cc3)C2)CO1` [Example 23, (4S)-4-[3-[3-[4-(2,4-Difluorophenyl)phenyl]azetidin-1-yl]-3-oxo-propyl]oxazolidin-2-one]: the IC50 came out at 381 nM.
